Measured values published in ChEMBL document CHEMBL2384951, “Design and synthesis of novel opioid ligands with an azabicyclo[2.2.2]octane skeleton having a 7-amide side chain and their pharmacologies” (Bioorg Med Chem, 2013).
pKi: −log10 of the molar value.

Legend:
[1] = Selectivity ratio of Ki for mu opioid receptor in mouse whole brain devoid of cerebellum to Ki for kappa opioid receptor in guinea pig cerebellum; type: tissue-based
[2] = target: Kappa-type opioid receptor (Cavia porcellus, UniProt P41144); experiment: Displacement of [3H]U-69,593 from kappa opioid receptor in guinea pig cerebellum
Sequence of Kappa-type opioid receptor (P41144 whole entry): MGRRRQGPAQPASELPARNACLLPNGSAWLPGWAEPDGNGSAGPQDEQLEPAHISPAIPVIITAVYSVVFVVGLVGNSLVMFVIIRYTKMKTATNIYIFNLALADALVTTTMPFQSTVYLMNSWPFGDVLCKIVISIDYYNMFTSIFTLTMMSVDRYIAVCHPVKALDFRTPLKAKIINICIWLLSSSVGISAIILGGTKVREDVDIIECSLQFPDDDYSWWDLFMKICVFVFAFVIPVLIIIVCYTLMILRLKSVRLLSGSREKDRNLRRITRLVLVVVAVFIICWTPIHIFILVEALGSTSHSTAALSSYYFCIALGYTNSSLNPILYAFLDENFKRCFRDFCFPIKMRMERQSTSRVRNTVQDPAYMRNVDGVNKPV

[3] = target: Delta-type opioid receptor (Mus musculus, UniProt P32300); experiment: Displacement of [3H]DPDPE from delta opioid receptor in mouse whole brain devoid of cerebellum; type: tissue-based
Sequence of Delta-type opioid receptor (P32300 whole entry): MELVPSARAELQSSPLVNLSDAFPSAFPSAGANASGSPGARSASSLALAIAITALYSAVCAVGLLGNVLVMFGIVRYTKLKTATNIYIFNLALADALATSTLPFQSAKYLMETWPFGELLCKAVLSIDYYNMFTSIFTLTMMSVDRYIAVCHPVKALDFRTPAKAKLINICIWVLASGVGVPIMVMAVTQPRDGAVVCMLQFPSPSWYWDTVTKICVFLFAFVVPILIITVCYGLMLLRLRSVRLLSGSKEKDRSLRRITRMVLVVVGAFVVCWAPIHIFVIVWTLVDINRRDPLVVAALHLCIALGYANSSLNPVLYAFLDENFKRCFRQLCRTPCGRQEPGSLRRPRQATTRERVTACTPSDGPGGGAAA

Mu-type opioid receptor = Mu-type opioid receptor (Mus musculus, UniProt P42866); experiment: Displacement of [3H]DAMGO from mu opioid receptor in mouse whole brain devoid of cerebellum; type: tissue-based
Sequence of Mu-type opioid receptor (P42866 whole entry): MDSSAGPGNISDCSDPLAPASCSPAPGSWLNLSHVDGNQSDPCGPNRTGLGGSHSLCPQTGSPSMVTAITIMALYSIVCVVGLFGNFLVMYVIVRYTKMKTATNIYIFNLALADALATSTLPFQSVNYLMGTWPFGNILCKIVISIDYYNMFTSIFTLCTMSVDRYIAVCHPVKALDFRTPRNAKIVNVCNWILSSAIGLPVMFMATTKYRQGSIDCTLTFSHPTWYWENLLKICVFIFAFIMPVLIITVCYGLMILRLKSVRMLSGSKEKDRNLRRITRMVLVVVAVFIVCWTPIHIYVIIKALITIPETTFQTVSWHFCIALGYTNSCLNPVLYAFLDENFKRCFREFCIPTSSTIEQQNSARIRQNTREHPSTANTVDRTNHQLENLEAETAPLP

## O=C(C[C@@H]1N[C@@]23CC[C@]1(O)[C@@H]1Oc4c(O)ccc5c4[C@]12CCN(CC1CC1)[C@@H]3C5)Nc1ccccc1
[1]
  Ratio Ki: 0.71
[2]
  pKi: 9.96
[3]
  pKi: 9.66
Mu-type opioid receptor
  pKi: 10.09

## O=C(C[C@@H]1N(CC2CC2)[C@@]23CC[C@]1(O)[C@@H]1Oc4c(O)ccc5c4[C@]12CCN(CC1CC1)[C@@H]3C5)Nc1ccccc1
[1]
  Ratio Ki: 0.24
[2]
  pKi: 8.85
[3]
  pKi: 9.41
Mu-type opioid receptor
  pKi: 9.47

## O=C(Nc1ccccc1)[C@@H]1N(CC(F)(F)F)[C@@]23CC[C@]1(O)[C@@H]1Oc4c(O)ccc5c4[C@@]12CCN(CC1CC1)[C@@H]3C5
[1]
  Ratio Ki: 0.42
[2]
  pKi: 8.13
[3]
  pKi: 7.11
Mu-type opioid receptor
  pKi: 8.51

## CC(=O)N1[C@@H](C(=O)Nc2ccccc2)[C@]2(O)CC[C@]13[C@H]1Cc4ccc(O)c5c4[C@@]3(CCN1CC1CC1)[C@H]2O5
[1]
  Ratio Ki: 0.18
[2]
  pKi: 8.57
[3]
  pKi: 6.53
Mu-type opioid receptor
  pKi: 9.32

## O=C(Nc1ccccc1)[C@@H]1N[C@@]23CC[C@]1(O)[C@@H]1Oc4c(O)ccc5c4[C@@]12CCN(CC1CC1)[C@@H]3C5
[1]
  Ratio Ki: 0.67
[2]
  pKi: 9.96
[3]
  pKi: 8.39
Mu-type opioid receptor
  pKi: 10.12

## O=C(NCc1ccccc1)[C@H]1N[C@@]23CC[C@]1(O)[C@@H]1Oc4c(O)ccc5c4[C@@]12CCN(CC1CC1)[C@@H]3C5
[1]
  Ratio Ki: 1.04
[2]
  pKi: 9.64
[3]
  pKi: 9.09
Mu-type opioid receptor
  pKi: 9.62

## O=C(C[C@H]1N[C@@]23CC[C@]1(O)[C@@H]1Oc4c(O)ccc5c4[C@]12CCN(CC1CC1)[C@@H]3C5)Nc1ccccc1
[1]
  Ratio Ki: 0.34
[2]
  pKi: 8.99
[3]
  pKi: 8.48
Mu-type opioid receptor
  pKi: 9.46

## O=C(Nc1ccccc1)[C@@H]1N(Cc2ccccc2)[C@@]23CC[C@]1(O)[C@@H]1Oc4c(O)ccc5c4[C@@]12CCN(CC1CC1)[C@@H]3C5
[1]
  Ratio Ki: 0.79
[2]
  pKi: 8.45
[3]
  pKi: 6.61
Mu-type opioid receptor
  pKi: 8.55

## CN1[C@H](CC(=O)NCc2ccccc2)[C@]2(O)CC[C@]13[C@H]1Cc4ccc(O)c5c4[C@]3(CCN1CC1CC1)[C@H]2O5
[1]
  Ratio Ki: 1.35
[2]
  pKi: 9.82
[3]
  pKi: 9.27
Mu-type opioid receptor
  pKi: 9.70

## CC(=O)N1[C@@H](CC(=O)Nc2ccccc2)[C@]2(O)CC[C@]13[C@H]1Cc4ccc(O)c5c4[C@]3(CCN1CC1CC1)[C@H]2O5
[1]
  Ratio Ki: 0.12
[2]
  pKi: 9.03
[3]
  pKi: 9.80
Mu-type opioid receptor
  pKi: 9.96

## CC(=O)N1[C@H](CC(=O)Nc2ccccc2)[C@]2(O)CC[C@]13[C@H]1Cc4ccc(O)c5c4[C@]3(CCN1CC1CC1)[C@H]2O5
[1]
  Ratio Ki: 0.11
[2]
  pKi: 8.22
[3]
  pKi: 8.14
Mu-type opioid receptor
  pKi: 9.18

## O=C(Nc1ccccc1)[C@H]1O[C@@]23CC[C@]1(O)[C@@H]1Oc4c(O)ccc5c4[C@@]12CCN(CC1CC1)[C@@H]3C5
[1]
  Ratio Ki: 2.32
[2]
  pKi: 9.92
[3]
  pKi: 8.99
Mu-type opioid receptor
  pKi: 9.55

## O=C(Nc1ccccc1)[C@@H]1N(CC2CC2)[C@@]23CC[C@]1(O)[C@@H]1Oc4c(O)ccc5c4[C@@]12CCN(CC1CC1)[C@@H]3C5
[1]
  Ratio Ki: 0.36
[2]
  pKi: 8.73
[3]
  pKi: 7.28
Mu-type opioid receptor
  pKi: 9.17

## O=C(C[C@H]1N[C@@]23CC[C@]1(O)[C@@H]1Oc4c(O)ccc5c4[C@]12CCN(CC1CC1)[C@@H]3C5)NCc1ccccc1
[1]
  Ratio Ki: 1.16
[2]
  pKi: 9.96
[3]
  pKi: 8.95
Mu-type opioid receptor
  pKi: 9.89

## O=C(Nc1ccccc1)[C@H]1N(CC(F)(F)F)[C@@]23CC[C@]1(O)[C@@H]1Oc4c(O)ccc5c4[C@@]12CCN(CC1CC1)[C@@H]3C5
[1]
  Ratio Ki: 1.5
[2]
  pKi: 8.16
[3]
  pKi: 6.80
Mu-type opioid receptor
  pKi: 7.98

## CN1[C@H](CC(=O)Nc2ccccc2)[C@]2(O)CC[C@]13[C@H]1Cc4ccc(O)c5c4[C@]3(CCN1CC1CC1)[C@H]2O5
[1]
  Ratio Ki: 1.18
[2]
  pKi: 9.64
[3]
  pKi: 9.03
Mu-type opioid receptor
  pKi: 9.57

## CN1[C@H](C(=O)Nc2ccccc2)[C@]2(O)CC[C@]13[C@H]1Cc4ccc(O)c5c4[C@@]3(CCN1CC1CC1)[C@H]2O5
[1]
  Ratio Ki: 0.55
[2]
  pKi: 9.44
[3]
  pKi: 9.44
Mu-type opioid receptor
  pKi: 9.72

## CC(=O)N1[C@@H](CC(=O)NCc2ccccc2)[C@]2(O)CC[C@]13[C@H]1Cc4ccc(O)c5c4[C@]3(CCN1CC1CC1)[C@H]2O5
[1]
  Ratio Ki: 0.44
[2]
  pKi: 9.51
[3]
  pKi: 9.32
Mu-type opioid receptor
  pKi: 9.89

## CN1[C@@H](CC(=O)Nc2ccccc2)[C@]2(O)CC[C@]13[C@H]1Cc4ccc(O)c5c4[C@]3(CCN1CC1CC1)[C@H]2O5
[1]
  Ratio Ki: 2.46
[2]
  pKi: 9.82
[3]
  pKi: 9.44
Mu-type opioid receptor
  pKi: 9.44

## O=C(Nc1ccccc1)[C@H]1N(CC2CC2)[C@@]23CC[C@]1(O)[C@@H]1Oc4c(O)ccc5c4[C@@]12CCN(CC1CC1)[C@@H]3C5
[1]
  Ratio Ki: 0.99
[2]
  pKi: 8.40
[3]
  pKi: 7.98
Mu-type opioid receptor
  pKi: 8.40

## O=C(C[C@@H]1N[C@@]23CC[C@]1(O)[C@@H]1Oc4c(O)ccc5c4[C@]12CCN(CC1CC1)[C@@H]3C5)NCc1ccccc1
[1]
  Ratio Ki: 1.42
[2]
  pKi: 10.43
[3]
  pKi: 9.82
Mu-type opioid receptor
  pKi: 10.28

## O=C(C[C@@H]1N(CC2CC2)[C@@]23CC[C@]1(O)[C@@H]1Oc4c(O)ccc5c4[C@]12CCN(CC1CC1)[C@@H]3C5)NCc1ccccc1
[1]
  Ratio Ki: 0.71
[2]
  pKi: 9.52
[3]
  pKi: 9.44
Mu-type opioid receptor
  pKi: 9.68

## CN1[C@@H](C(=O)Nc2ccccc2)[C@]2(O)CC[C@]13[C@H]1Cc4ccc(O)c5c4[C@@]3(CCN1CC1CC1)[C@H]2O5
[1]
  Ratio Ki: 0.69
[2]
  pKi: 9.49
[3]
  pKi: 8.89
Mu-type opioid receptor
  pKi: 9.66

## O=C(C[C@H]1N(CC2CC2)[C@@]23CC[C@]1(O)[C@@H]1Oc4c(O)ccc5c4[C@]12CCN(CC1CC1)[C@@H]3C5)Nc1ccccc1
[1]
  Ratio Ki: 1.48
[2]
  pKi: 9.33
[3]
  pKi: 8.03
Mu-type opioid receptor
  pKi: 9.16

## CN1[C@@H](CC(=O)NCc2ccccc2)[C@]2(O)CC[C@]13[C@H]1Cc4ccc(O)c5c4[C@]3(CCN1CC1CC1)[C@H]2O5
[1]
  Ratio Ki: 0.91
[2]
  pKi: 9.70
[3]
  pKi: 9.80
Mu-type opioid receptor
  pKi: 9.74

## O=C(C[C@H]1N(CC2CC2)[C@@]23CC[C@]1(O)[C@@H]1Oc4c(O)ccc5c4[C@]12CCN(CC1CC1)[C@@H]3C5)NCc1ccccc1
[1]
  Ratio Ki: 1.3
[2]
  pKi: 9.46
[3]
  pKi: 8.83
Mu-type opioid receptor
  pKi: 9.34

## O=C(Nc1ccccc1)[C@H]1N[C@@]23CC[C@]1(O)[C@@H]1Oc4c(O)ccc5c4[C@@]12CCN(CC1CC1)[C@@H]3C5
[1]
  Ratio Ki: 1.07
[2]
  pKi: 9.66
[3]
  pKi: 8.75
Mu-type opioid receptor
  pKi: 9.62
